Values quoted from earlier work in US20070009923A1, “Use of bayesian networks for modeling cell signaling systems” (Massachusetts Institute of Technology, priority 2005, published 2007).

Tested on: PKC isozymes

- IC50: < 8 nM
Structure (SMILES): Cn1c2ccccc2c2c3c(c4c5ccccc5n(CCC#N)c4c21)CNC3=O [G06976]
